Results taken from the OPERA property sets (Mansouri et al. 2018).

Conditions: not given
Work on CCOP(=O)(OCC)Oc1ccc([N+](=O)[O-])cc1 yielded a log10 vapour pressure (mmHg) of -5.96 and a melting point of 300 °C. Compound CCc1cccs1 has a boiling point of 134 °C and a log10 vapour pressure (mmHg) of 1.05. With CCCCCCCCCCCC(=O)N(CCO)CCO the ready biodegradability was “readily biodegradable”. CC(C)NNC(=O)COc1ccc(Cl)cc1 gave a melting point of 93.5 °C. CC(=O)O[C@]1(C(C)=O)CC[C@H]2[C@@H]3C[C@H](C)C4=CC(=O)C=C[C@]4(C)[C@@]3(F)[C@@H](O)C[C@@]21C gave a melting point of 298 °C. Oc1cccc2sccc12 gave a melting point of 79.8 °C. With CC(=O)OCc1cnc(N)c(C#N)n1 the ready biodegradability was “readily biodegradable”. Compound CNc1ccc(N)c2c1C(=O)c1ccccc1C2=O has a melting point of 193 °C. In the case of OC1CC=CCC1 (centres undefined), the boiling point was 164 °C. Clc1cccc2c1Oc1ccccc1O2 showed a log10 vapour pressure (mmHg) of -4.05 and a melting point of 104 °C. Compound ClC1CC2CCC1C2 (centres undefined) has a boiling point of 162 °C and a melting point of -5 °C. CC(C)C(C)CCC(C)C1CCC2=C3CCC4CC(O)CCC4(C)C3CCC21C (centres undefined) showed a melting point of 131 °C. Compound c1ccc(-c2ccccc2-c2ccccc2-c2ccccc2)cc1 has a boiling point of 420 °C and a melting point of 118 °C. In the case of CSc1ccccc1, the boiling point was 193 °C and the log10 vapour pressure (mmHg) was -0.314. For COc1ccc(C(=O)c2ccccc2)cc1, the boiling point was 355 °C and the melting point was 61.5 °C. Work on CCCCCCCCCCCCCCCCS yielded a boiling point of 334 °C, a log10 vapour pressure (mmHg) of -4.99 and a melting point of 19 °C. Work on Nc1ccc(N)c2ccccc12 yielded a melting point of 120 °C. CCCCC(C)CC(C)C (centres undefined) gave a boiling point of 156 °C. For CCCCC(CC)CO[Si](OCC(CC)CCCC)(OCC(CC)CCCC)OCC(CC)CCCC (centres undefined), the boiling point was 419 °C. With COCC(C)N(C(=O)CCl)c1c(C)csc1C (centres undefined) the log10 Henry constant (atm·m³/mol) was -7.09 and the log10 vapour pressure (mmHg) was -3.56. In the case of Cc1cc(C2(c3cc(C)c(O)c(Br)c3)OS(=O)(=O)c3ccccc32)cc(Br)c1O, the melting point was 242 °C. Compound C[SiH](O[SiH](C)O[Si](C)(C)C)O[Si](C)(C)C (centres undefined) has a boiling point of 170 °C. CCC1(c2ccccc2)NC(=O)N(C)C1=O (centres undefined) showed a melting point of 136 °C. With C1CC1 the boiling point was -32.8 °C, the log10 vapour pressure (mmHg) was 3.73 and the melting point was -127 °C. Compound Cc1ccc(-c2ccccc2)cc1 has a boiling point of 268 °C, a log10 biodegradation half-life (days) of 1.58 and a melting point of 49.5 °C. For Nc1cccc(-n2ccccc2=O)c1, the melting point was 183 °C. With c1ccc2sc(SNC3CCCCC3)nc2c1 the melting point was 98 °C and the ready biodegradability was “not readily biodegradable”. With Brc1cc(Br)c(Br)c(Br)c1Br the melting point was 160 °C. With CCCCCCOC(=O)CCCCC(=O)OCCCCCC the log10 vapour pressure (mmHg) was -5.54. Compound c1ccc2c(c1)ccc1[nH]c3ccc4ccccc4c3c12 has a log10 Koc (L/kg) of 6.03 and a melting point of 158 °C. O=[N+]([O-])c1cc(C(F)(F)F)c(Cl)c([N+](=O)[O-])c1Nc1ncc(C(F)(F)F)cc1Cl showed a melting point of 113 °C. With Brc1cc(Br)c(-c2c(Br)cc(Br)cc2Br)c(Br)c1 the log10 Koc (L/kg) was 4.87. Clc1ccc(Cl)c(-c2ccc(Cl)c(Cl)c2Cl)c1 showed a log10 Henry constant (atm·m³/mol) of -4.13, a log10 Koc (L/kg) of 4.62 and a log10 vapour pressure (mmHg) of -4.77. In the case of Clc1ccc2c(Cl)cc(Cl)c(Cl)c2c1, the log10 Koa was 8.13 and the log10 vapour pressure (mmHg) was -5.07. Work on c1ccc(-c2c3ccccc3nc3ccccc23)cc1 yielded a boiling point of 404 °C and a melting point of 184 °C. O=CC1CCCC1 gave a boiling point of 134 °C. Work on O=Cc1cc(Cl)cc(Cl)c1 yielded a boiling point of 240 °C and a melting point of 65 °C. In the case of COC(C)(C)OC, the boiling point was 83 °C, the log10 vapour pressure (mmHg) was 2.01 and the melting point was -47 °C. Work on OCc1cc(Cl)cc(Cl)c1 yielded a melting point of 80.5 °C. For CC(Oc1ccccc1Cl)C(=O)O (centres undefined), the melting point was 114 °C. FCI showed a boiling point of 53.4 °C. Nc1c2ccccc2nc2ccccc12 showed a melting point of 241 °C. Nc1cccc2cc3ccccc3cc12 showed a melting point of 116 °C. Work on CCCC(C)N (centres undefined) yielded a boiling point of 92 °C. O=C1C(Cl)C(CCl)CN1c1cccc(C(F)(F)F)c1 (centres undefined) showed a log10 vapour pressure (mmHg) of -5.48 and a melting point of 67.7 °C. CCCCCCCCCCOC(=O)CCCCC(=O)OCCCCCCCC gave a melting point of -50 °C. COS(=O)OC showed a boiling point of 126 °C. Compound CCCCCCCOCC has a boiling point of 166 °C and a melting point of -68.3 °C. Compound Cc1cccc(CC#N)c1 has a boiling point of 248 °C. Compound CCCCc1cccc(O)c1 has a boiling point of 248 °C. Compound C[Si](Cl)(Cl)CCl has a boiling point of 122 °C. With O=C(O)c1cc(S(=O)(=O)O)ccc1O the melting point was 120 °C. O=C(C(Cl)Cl)C(Cl)(Cl)Cl gave a melting point of 2.1 °C. Compound COc1cc([C@@H]2c3cc4c(cc3[C@H](O)[C@H]3COC(=O)[C@@H]23)OCO4)cc(OC)c1OC has a melting point of 206 °C. With CCCCCCCCCCCCCCCCCCOP1OCC2(CO1)COP(OCCCCCCCCCCCCCCCCCC)OC2 (centres undefined) the ready biodegradability was “readily biodegradable”. CCOC(=O)C1CCCCC1 gave a boiling point of 196 °C. With CCOC(F)(F)C(F)F the boiling point was 57.5 °C and the log10 vapour pressure (mmHg) was 2.34. In the case of CN1C(=O)C(=NNC(N)=S)c2ccccc21, the melting point was 245 °C. With CCOC(OCC)N(C)C the boiling point was 129 °C. In the case of CCCOC(=O)c1ccoc1, the boiling point was 211 °C. Work on O=S(=O)(O)c1ccc(Nc2ccccc2)cc1 yielded a melting point of 206 °C. CC(CN(C)C)CN1c2ccccc2Sc2ccccc21 (centres undefined) showed a melting point of 68 °C. In the case of O=[N+]([O-])c1ccc(F)cc1F, the boiling point was 207 °C and the melting point was 9.8 °C. With c1ccc2cc(Nc3ccc(Nc4ccc5ccccc5c4)cc3)ccc2c1 the melting point was 235 °C. For NS(=O)(=O)c1ccc(S(=O)(=O)CCCCO)cc1, the melting point was 134 °C.

Same assay, conditions: fish
Clc1ccc(-c2cc(Cl)cc(Cl)c2Cl)cc1 showed a log10 biotransformation half-life (days) of 2.43. Work on CCNc1nc(Cl)nc(NCC)n1 yielded a log10 BCF of 0.56 and a log10 biotransformation half-life (days) of -0.94. Compound Nc1ccc2c(c1)C(=O)c1ccccc1C2=O has a log10 BCF of 1.51 and a log10 biotransformation half-life (days) of -1.06. ClCC(Br)CBr (centres undefined) showed a log10 BCF of 1.06 and a log10 biotransformation half-life (days) of -1.14. In the case of Clc1ccc(-c2c(Cl)c(Cl)cc(Cl)c2Cl)c(Cl)c1Cl, the log10 biotransformation half-life (days) was 2.5. For Brc1cc(Br)c(-c2c(Br)cc(Br)cc2Br)c(Br)c1, the log10 BCF was 4.66 and the log10 biotransformation half-life (days) was 2.66. Clc1ccc(Cl)c(-c2ccc(Cl)c(Cl)c2Cl)c1 gave a log10 BCF of 5.38 and a log10 biotransformation half-life (days) of 2.31.
